The source of these data is patent publication US12544547B2, “Gelatin-based microneedle patch for minimally-invasive extraction of bodily fluids” (THE REGENTS OF THE UNIVERSITY OF CALIFORNIA, priority 2020, dated 2026).

On the set-up of series [1]: species or system Wistar rats. As to conditions: rat, in vivo.
A short description of series [2]: In vivo vancomycin detection in ISF versus plasma after intravenous vancomycin. On the set-up: species or system Wistar rats. As to conditions: Wistar, rat, 1 mg/rat; for concentration at 5 min: 5 min after intravenous injection; for concentration at 30 min / concentration at 60 min: intravenous; for concentration at 30 min: 30 min following injection; for concentration at 60 min: 60 min after injection. On the procedure:
In vivo collection of ISF and glucose and vancomycin detection: All animal experiments were approved by the Animal Care and Use Committee of University of California, Los Angeles, and procedures for animals were performed in accordance with the relevant guidelines and regulations. Wistar rats (4-week-old, approximately 70-80 g) were anesthetized with 50 mg/kg sodium pentobarbital. The dorsal hair of each rat was shaved. After the initial mass of the GelMA patch 10 was weighed, it was applied to the dorsal skin of the rat using the thumb and index finger. Gauze was used to fix the patches 10 on the skin. ten minutes later, the patch 10 was removed and the final mass was recorded. To quantify the concentration of the delivered molecules, the wet patch 10 was transferred into a centrifuge tube with 200 μL of DI water. After centrifugation at 12000 rpm for 10 min, the solution in the tube was transferred to be tested. In addition, blood samples were also collected from the tail vein for glucose detection and the plasma was isolated via centrifugation for vancomycin detection. For histopathology, the skin was harvested and fixed in 10% neutral buffered formalin (BBC Biochemical, WA, USA), processed by a standard method, and embedded in paraffin. 4 μm in thickness tissue sections were stained with hematoxylin and eosin (H&E, BBC Biochemical) to confirm that GelMA microneedles 14 effectively penetrate the skin.
In the glucose detection experiment, the rats were intravenously injected with 1 mL of 0.2 g/mL glucose in saline. The glucose concentrations in ISF were tested using Glucose Assay Kit (Sigma) and the glucose levels in blood were tested using a glucometer (Clarity Diagnostics, US). In the vancomycin detection experiment, the rats were intravenously injected with 1 mL vancomycin at a concentration of 1 mg/mL in saline. The vancomycin concentration in ISF and plasma samples was also quantified by LC-MS/MS analysis (mentioned above).

[3] abbreviates: interstitial fluid (ISF), read-out: vancomycin concentration in ISF.
[4] abbreviates: plasma, read-out: vancomycin concentration in plasma.

Read-outs that look alike come from different tables or passages of the source. A value given as a limit tells only on which side of the number the result lay.

Take “gelatin methacryloyl (GelMA) [GelMA microneedle patch]”: the “skin recovery time after removing the patch” value in series [1] is at most 20 min.
`CN[C@H](CC(C)C)C(=O)N[C@H]1C(=O)N[C@@H](CC(N)=O)C(=O)N[C@H]2C(=O)N[C@H]3C(=O)N[C@H](C(=O)N[C@H](C(=O)O)c4cc(O)cc(O)c4-c4cc3ccc4O)[C@H](O)c3ccc(c(Cl)c3)Oc3cc2cc(c3O[C@@H]2O[C@H](CO)[C@@H](O)[C@H](O)[C@H]2O[C@H]2C[C@](C)(N)[C@H](O)[C@H](C)O2)Oc2ccc(cc2Cl)[C@H]1O` [vancomycin]: in series [2] (setting [3]), the concentration at 5 min came to 5930 ± 180 ng/mL, the concentration at 30 min is around 6500 ng/mL and the concentration at 60 min is around 4000 ng/mL. In addition, in series [2] (setting [4]), the concentration at 5 min came out at 8270 ± 130 ng/mL, the concentration at 30 min is around 6500 ng/mL and the concentration at 60 min is around 4000 ng/mL.
